In patent US4492693A, “Benzothienylglycyl cephalosporin derivatives” (priority 1983, dated 1985):
Where two headings read alike, the source gives them in different places.

How the values were obtained:
Type in all cases: cell-based
H. influ. = assay: Agar Dilution MIC (Table I); conditions: read-out: Agar Dilution MIC
Klebsiella = assay: Agar Dilution MIC (Table I); conditions: for MIC: Klebsiella, read-out: Agar Dilution MIC
Staph. aureus [1] = assay: Agar Dilution MIC (Table I); conditions: Staphylococcus aureus
Strep. PN = assay: Agar Dilution MIC (Table I); conditions: strain PARK
Strep. A = assay: Agar Dilution MIC (Table I); conditions: strain C203; read-out: Agar Dilution MIC
Strep. D = assay: Agar Dilution MIC (Table I); conditions: for MIC: read-out: Agar Dilution MIC
Description: (§1) A typical and preferred compound provided by this invention is 7-(3-benzothienyl)glycylamido-3-methyl-3-cephem-4-carboxylic acid, the compound illustrated in Example 9. The antibacterial activity of this compound has been determined in standard in vitro agar dilution assays against a variety of gram positive and gram negative microorganism. The following Tables present typical minimum inhibitory concentrations (MIC's) in μg/ml for several compounds of the invention when evaluated against the indicated microorganisms. MIC's for several known compounds are also presented for comparison.
Agar Dilution MIC (μg/ml)

Staph. epi [2] = assay: Agar Dilution MIC (Table I); conditions: read-out: Agar Dilution MIC
E. coli = assay: Agar Dilution MIC (Table I); conditions: Escherichia coli
H. influenzae = assay: Expanded Spectrum MIC (Table II); conditions: Haemophilus influenzae
Description: as §1
(§2) Expanded Spectrum MIC (μg/ml)

Staph. epi [3] = assay: Expanded Spectrum MIC (Table II)
Description: as §1, §2

Staph. aureus [4] = assay: Expanded Spectrum MIC (Table II); conditions: Staphylococcus aureus
Description: as §1, §2

[5] = read-out: Agar Dilution MIC, strain S13E
[6] = strain V41, read-out: Agar Dilution MIC
[7] = strain X1.1, read-out: Agar Dilution MIC
[8] = strain X400, read-out: Agar Dilution MIC

CC1=C(C(=O)O)N2C(=O)C(NC(=O)[C@@H](N)c3csc4c(F)cccc34)C2SC1 (stereo partly drawn) [Ex. 21, L-7-(7-Fluoro-3-benzothienyl)glycylamido-3-methyl-3-cephem-4-carboxylic acid]
64 µg/mL: MIC (H. influ.; strain C.L.) | MIC (Klebsiella; strain X26) | MIC (Staph. epi [2]; strain 222)
32 µg/mL: MIC (Staph. aureus [1]; [7])
128 µg/mL: MIC (Klebsiella) | Agar Dilution MIC (Klebsiella; strain X68) | MIC (Staph. aureus [1]; [5]) | MIC (Staph. aureus [1]; [6]) | MIC (Staph. aureus [1]; [8]) | MIC (Strep. D) | Agar Dilution MIC (Strep. D; strain 2041) | MIC (Staph. epi [2]) | MIC (E. coli; strain EC14) | MIC (E. coli; strain N10) | MIC (E. coli; strain TEM)
16 µg/mL: MIC (Strep. PN)
8 µg/mL: MIC (H. influ.; strain 76) | MIC (Strep. A)

CON=C(C(=O)NC1C(=O)N2C(C(=O)O)=C(C)CSC12)c1csc2cc(OC)ccc12 (stereo not drawn) [Ex. 22]
2 µg/mL: MIC (H. influ.; strain 76) | MIC (H. influenzae; strain 105) | MIC (H. influenzae; strain 169) | MIC (H. influenzae; strain 171) | MIC (H. influenzae; strain M371) | MIC (H. influenzae; strain R465) | MIC (Staph. epi [3]; strain 219) | MIC (Staph. aureus [4]; strain S224) | MIC (Staph. aureus [4]; strain S225) | MIC (Staph. aureus [4]; strain S226) | MIC (Staph. aureus [4]; strain S227) | MIC (Staph. aureus [4]; strain S228) | MIC (Staph. aureus [4]; strain S230) | MIC (Staph. aureus [4]; strain S234) | MIC (Staph. aureus [4]; strain S237) | MIC (Staph. aureus [4]; strain S239)
0.5 µg/mL: MIC (Strep. PN) | MIC (Strep. A) | MIC (H. influenzae; strain 1683)
1 µg/mL: MIC (Klebsiella; strain X26) | MIC (Staph. aureus [1]; [7]) | MIC (H. influenzae; strain 76) | MIC (H. influenzae; strain 158) | MIC (H. influenzae; strain 164) | MIC (H. influenzae; strain 312) | MIC (H. influenzae; strain 1930) | MIC (H. influenzae; strain 4842) | MIC (H. influenzae; strain M370) | MIC (Staph. epi [3]; strain 286) | MIC (Staph. aureus [4]; strain S231)
4 µg/mL: MIC (H. influenzae; strain C.L.) | MIC (H. influenzae; strain HESS) | MIC (Staph. epi [3]; strain 269) | MIC (Staph. epi [3]; strain 285) | MIC (Staph. aureus [4]; strain S229) | MIC (Staph. aureus [4]; strain S238) | MIC (Staph. epi [2]; strain 222)
8 µg/mL: MIC (H. influ.; strain C.L.) | MIC (Staph. aureus [1]; [6]) | MIC (Staph. epi [3]; strain 270) | MIC (Staph. epi [2]; strain EPI1)
64 µg/mL: MIC (Staph. aureus [1]; [8]) | MIC (Strep. D; strain 2041) | MIC (Strep. D; strain X66) | MIC (H. influenzae; strain M366) | MIC (H. influenzae; strain STEL) | MIC (E. coli; strain EC14)
128 µg/mL: MIC (Klebsiella; strain KAE) | MIC (Klebsiella; strain X68) | MIC (E. coli; strain N10) | MIC (E. coli; strain TEM)
16 µg/mL: MIC (Staph. epi [3]; strain EPI1)

CC1=C(C(=O)O)N2C(=O)C(NC(=O)[C@@H](N)c3csc4cccc(Cl)c34)C2SC1 (stereo partly drawn) [Ex. 36A, L-7-(4-chloro-3-benzothienyl)glycylamido-3-methyl-3-cephem-4-carboxylic acid]
4 µg/mL: MIC (H. influ.; strain 76)
8 µg/mL: MIC (Strep. PN)
16 µg/mL: MIC (Strep. A)
64 µg/mL: MIC (Staph. aureus [1]; [7]) | MIC (Staph. epi [2]; strain 222)
128 µg/mL: MIC (H. influ.) | MIC (Klebsiella) | Agar Dilution MIC (Klebsiella; strain KAE) | Agar Dilution MIC (Klebsiella; strain X68) | MIC (Staph. aureus [1]; [5]) | MIC (Staph. aureus [1]; [6]) | MIC (Staph. aureus [1]; [8]) | MIC (Strep. D) | Agar Dilution MIC (Strep. D; strain 2041) | MIC (Staph. epi [2]) | MIC (E. coli; strain EC14) | MIC (E. coli; strain N10) | MIC (E. coli; strain TEM)

CC1=C(C(=O)O)N2C(=O)C(NC(=O)[C@H](N)c3csc4cccc(Cl)c34)C2SC1 (stereo partly drawn) [Ex. 36B, D-7-(4-chloro-3-benzothienyl)glycylamido-3-methyl-3-cephem-4-carboxylic acid]
128 µg/mL: MIC (H. influ.) | MIC (Klebsiella) | Agar Dilution MIC (Klebsiella; strain KAE) | Agar Dilution MIC (Klebsiella; strain X68) | MIC (Staph. aureus [1]; [5]) | MIC (Staph. aureus [1]; [6]) | MIC (Staph. aureus [1]; [8]) | MIC (Strep. D) | Agar Dilution MIC (Strep. D; strain 2041) | MIC (Staph. epi [2]) | MIC (E. coli; strain EC14) | MIC (E. coli; strain N10) | MIC (E. coli; strain TEM)
8 µg/mL: MIC (Strep. PN) | MIC (Strep. A) | MIC (Staph. epi [2]; strain 222)
16 µg/mL: MIC (H. influ.; strain 76) | MIC (Staph. aureus [1]; [7])

CC1=C(C(=O)O)N2C(=O)C(NC(=O)[C@@H](N)c3csc4cc(Cl)ccc34)C2SC1 (stereo partly drawn) [Ex. 37A, L-7-(6-Chloro-3-benzothienyl)glycylamido-3-methyl-3-cephem-4-carboxylic acid]
32 µg/mL: MIC (Staph. epi [2]; strain 222)
2 µg/mL: MIC (H. influ.; strain 76)
4 µg/mL: MIC (Strep. A)
64 µg/mL: MIC (Klebsiella; strain X26) | MIC (Staph. aureus [1]; [5]) | MIC (Staph. aureus [1]; [6]) | MIC (Staph. epi [2]; strain EPI1)
16 µg/mL: MIC (Staph. aureus [1]; [7]) | MIC (Strep. PN)
128 µg/mL: MIC (H. influ.; strain C.L.) | MIC (Klebsiella; strain KAE) | MIC (Klebsiella; strain X68) | MIC (Staph. aureus [1]; [8]) | MIC (Strep. D; strain 2041) | MIC (Strep. D; strain X66) | MIC (E. coli; strain EC14) | MIC (E. coli; strain N10) | MIC (E. coli; strain TEM)

CC1=C(C(=O)O)N2C(=O)C(NC(=O)[C@H](N)c3csc4cc(Cl)ccc34)C2SC1 (stereo partly drawn) [Ex. 37B, D-7-(6-chloro-3-benzothienyl)glycylamido-3-methyl-3-cephem-4-carboxylic acid]
128 µg/mL: MIC (Klebsiella; strain KAE) | MIC (Klebsiella; strain X68) | MIC (Strep. D; strain X66) | MIC (E. coli; strain EC14) | MIC (E. coli; strain N10) | MIC (E. coli; strain TEM)
16 µg/mL: MIC (Staph. aureus [1]; [8])
1 µg/mL: MIC (H. influ.; strain 76) | MIC (Staph. aureus [1]; [7]) | MIC (Strep. PN)
8 µg/mL: MIC (H. influ.; strain C.L.) | MIC (Staph. aureus [1]; [6])
32 µg/mL: MIC (Strep. D; strain 2041)
2 µg/mL: MIC (Staph. epi [2]; strain 222)
0.5 µg/mL: MIC (Strep. A)
4 µg/mL: MIC (Klebsiella; strain X26) | MIC (Staph. epi [2]; strain EPI1)

CC1=C(C(=O)O)N2C(=O)C(NC(=O)[C@@H](N)c3csc4ccc(Cl)cc34)C2SC1 (stereo partly drawn) [Ex. 38A, L-7-(5-chloro-3-benzothienyl)glycylamido-3-methyl-3-cephem-4-carboxylic acid]
16 µg/mL: MIC (Klebsiella; strain X26) | MIC (Staph. aureus [1]; [5]) | MIC (Staph. epi [2]; strain 222) | MIC (Staph. epi [2]; strain EPI1)
8 µg/mL: MIC (Staph. aureus [1]; [7])
1 µg/mL: MIC (Strep. A)
32 µg/mL: MIC (H. influ.; strain C.L.) | MIC (Staph. aureus [1]; [6])
2 µg/mL: MIC (H. influ.; strain 76) | MIC (Strep. PN)
64 µg/mL: MIC (Klebsiella; strain KAE) | MIC (Klebsiella; strain X68) | MIC (Staph. aureus [1]; [8]) | MIC (Strep. D; strain 2041) | MIC (Strep. D; strain X66) | MIC (E. coli; strain EC14) | MIC (E. coli; strain N10) | MIC (E. coli; strain TEM)
